Where two headings read alike, the source gives them in different places.
How the values were obtained:
[1] = rat and human, 24 h, 0.2 μmol/L
in vitro [2] = conditions: rat
in vitro [3] = conditions: human, serum
[4] = fu by static analysis (versus buffer), rat serum (Reference Example); conditions: Reference Examples 4 to 13: 10% serum versus buffer, 24 h
[5] = Relative fu ratio rat/human, equilibrium dialysis serum versus serum, dynamic analysis; conditions: Examples 4 to 13: 10% serum, analyte 0.2 μmol/L, 0.5-24 h
[6] = cited from earlier work
[7] = fu ratio (serum/microsome) from fu values by static analysis (versus buffer), Reference Examples 14 to 20; assay type: in vitro ADME, human; conditions: from fu values of Reference Examples 14 to 20 (static analysis versus buffer)
[8] = fu ratio (serum/microsome) using fu value (microsome) and fu value (serum)=0.01 based on the FDA guidance, Reference Examples 21 to 27; assay type: in vitro ADME, human; conditions: fu value (microsome) of Reference Examples 14 to 20 and fu value (serum)=0.01 per FDA guidance (Reference Examples 21 to 27)
CYP3A4 [9] = biological target: T1, CYP3A4 (Homo sapiens, UniProt P08684); assay: Inhibition constant Ki in human hepatic microsome with midazolam as CYP3A4 probe substrate
T1 sequence (P08684 whole entry): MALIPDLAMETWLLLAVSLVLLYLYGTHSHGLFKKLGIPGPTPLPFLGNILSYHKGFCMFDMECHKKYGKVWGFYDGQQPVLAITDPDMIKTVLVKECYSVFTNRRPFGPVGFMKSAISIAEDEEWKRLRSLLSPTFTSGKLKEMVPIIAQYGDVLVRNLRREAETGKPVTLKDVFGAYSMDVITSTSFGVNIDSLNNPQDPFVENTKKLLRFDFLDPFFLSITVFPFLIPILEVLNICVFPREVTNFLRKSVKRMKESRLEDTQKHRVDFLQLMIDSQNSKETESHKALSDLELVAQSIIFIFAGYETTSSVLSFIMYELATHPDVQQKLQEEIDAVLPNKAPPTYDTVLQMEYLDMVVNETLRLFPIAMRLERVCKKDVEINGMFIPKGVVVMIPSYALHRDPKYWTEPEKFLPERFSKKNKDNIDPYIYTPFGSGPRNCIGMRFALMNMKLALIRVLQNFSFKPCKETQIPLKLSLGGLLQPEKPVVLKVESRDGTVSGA
Protocol: For predicting the DDI risk, midazolam that is a CYP3A4 substrate was used as a probe compound to determine an inhibition constant Ki value of each compound in human hepatic microsome.
To 5 μL of a solution of midazolam dissolved therein at 50 mmol/L was added 70 μL of a 50% acetonitrile solution to obtain 75 μL in total of a solution. […] To 25 mg of commercially available β-NADPH (Wako Pure Chemical Industries, Ltd.) was added 3000 μL of a phosphate buffer at 0.1 mol/L to obtain a NADPH solution (10 mmol/L). The prepared solutions were mixed in the following order to obtain an inhibition reaction solution (100 μL in total), and the solution was reacted for 5 minutes with stirring at 37° C. where the time immediately after addition of the NADPH solution was defined as 0 minute after the start of the reaction.
The thus-obtained sample was used as a LCMS measurement solution. Two sets of the LCMS measurement solution were prepared, with one intended for quantitative determination of 1-hydroxymidazolam generated by metabolic reaction and the other intended for measurement of the actual concentration of a compound to be measured (inhibitor). Each set was used for LCMS quantitative analysis.
Therefore, the determined IC50 was directly used as Ki value.

[10] = serum, 24 h, 0.2 μmol/L
CYP3A4 [11] = biological target: T1, CYP3A4; parameters: unit not given beside the values; conditions: in vivo, cited from earlier work
[12] = serum, 24 h, 0.2 μmol/L; remark: listed apart in the source
[13] = fu value (microsome) by static analysis (versus buffer), Reference Examples 14 to 20; assay type: in vitro ADME; conditions: human, human hepatic microsomes 0.1 mg/mL dialysed against buffer, microsome 0.1 mg/mL
[14] = fu by static analysis (versus buffer), human serum (Reference Example); conditions: 24 h, 10% serum fu corrected to serum concentration 1/1
[15] = Relative fu ratio (serum/microsome), human serum and human hepatic microsome, dynamic analysis; conditions: human serum fu corrected to 1/1, human hepatic microsome 0.1 mg/mL
CYP3A4 [16] = biological target: T1, CYP3A4; conditions: read-out: Km value; midazolam as CYP3A4 substrate, suggested in the literature; cited from earlier work

In the case of CNC(=O)c1ccc(N2C(=S)N(c3cnc(C#N)c(C(F)(F)F)c3)C(=O)C23CCC3)cc1F [Apalutamide], the “fu ratio (rat/human)” value [1] is reported as 3.36, the fraction unbound at 24 h, 0.2 μmol/L (in vitro [2]) is reported as 0.104 and the fraction unbound at 24 h, 0.2 μmol/L (in vitro [3]) is reported as 0.03. For the same compound, the “fu ratio (rat/human)” value [4] was 2.30 and the “fu ratio (rat/human)” value [5] was 2.50.
O=C1CCc2ccc(OCCCCN3CCN(c4cccc(Cl)c4Cl)CC3)cc2N1 [Aripiprazole] gave a fraction unbound (in vitro [2]; serum) of 0.003, a fraction unbound (in vitro [3]; Human (fu value)) of 0.002 and a fraction unbound (in vitro [3]; Human serum (serum concentration: 1/1) (fu value)) of 0.0021. For the same compound, the Cmax ([6]; Dose 15 mg) was 242 ng/mL.
Work on C=C[C@@H]1C[C@]1(NC(=O)[C@@H]1C[C@@H](Oc2ncc(OC)c3ccc(Cl)cc23)CN1C(=O)[C@@H](NC(=O)OC(C)(C)C)C(C)(C)C)C(=O)NS(=O)(=O)C1CC1 [Asunaprevir] yielded a fraction unbound at 24 h, 0.2 μmol/L (in vitro [2]) of 0.008 and a fraction unbound at 24 h, 0.2 μmol/L (in vitro [3]) of 0.005.
In the case of COc1ccc2c(c1)[C@@H]1C[C@]1(C(=O)N1[C@@H]3CC[C@H]1CN(C)C3)Cn1c-2c(C2CCCCC2)c2ccc(C(=O)NS(=O)(=O)N(C)C)cc21 [Beclabuvir], the fraction unbound at 24 h, 0.2 μmol/L (in vitro [2]; serum) is reported as 0.008 and the fraction unbound at 24 h, 0.2 μmol/L (in vitro [3]) is reported as 0.007.
For O=C(O)c1ccc(-n2nc(-c3ccccc3O)nc2-c2ccccc2O)cc1 [Deferasirox], the “fu ratio (serum/microsome)” value [7] was 0.0046, the “fu ratio (serum/microsome)” value [8] was 0.0099 and the Ki (CYP3A4 [9]) was no less than 49 µM. For the same compound, the Ki value (CYP3A4 [9]; microsomes) was “maximum addition concentration”, the “Human (fu value)” value [10] was 0.005 and the fraction unbound at 24 h, 0.2 μmol/L (in vitro [2]; serum) was 0.02. The Cmax ([6]; Dose 210 mg) was 40327 ng/mL and the “AUCR (observed value)” value (CYP3A4 [11]; 210 mg) was 0.90.
Compound C[C@]12C=CC(=O)N[C@@H]1CC[C@@H]1[C@@H]2CC[C@]2(C)[C@@H](C(=O)Nc3cc(C(F)(F)F)ccc3C(F)(F)F)CC[C@@H]12 [Dutasteride] has a fraction unbound at 24 h, 0.2 μmol/L (in vitro [2]; serum) of 0.009 and a fraction unbound at 24 h, 0.2 μmol/L (in vitro [3]) of 0.006.
For COC(=O)N[C@H](C(=O)N1CCC[C@H]1c1nc(-c2ccc3c(c2)O[C@@H](c2ccccc2)n2c-3cc3cc(-c4c[nH]c([C@@H]5CCCN5C(=O)[C@@H](NC(=O)OC)C(C)C)n4)ccc32)c[nH]1)C(C)C [Elbasvir], the “Rat (fu value)” value [12] was 0.001 and the “Human (fu value)” value [10] was 0.001.
In the case of C=CC(=O)N1CCC[C@@H](n2nc(-c3ccc(Oc4ccccc4)cc3)c3c(N)ncnc32)C1 [Ibrutinib], the fraction unbound at 24 h, 0.2 μmol/L (in vitro [2]; serum) is reported as 0.007 and the fraction unbound at 24 h, 0.2 μmol/L (in vitro [3]) is reported as 0.019.
For CCC(C)n1ncn(-c2ccc(N3CCN(c4ccc(OCC5COC(Cn6cncn6)(c6ccc(Cl)cc6Cl)O5)cc4)CC3)cc2)c1=O (stereo not shown) [Itraconazole], the fraction unbound at 24 h, 1 μmol/L [13] is listed as 0.77, the Cmax ([6]; Dose 50 mg) is listed as 14.11 ng/mL and the Cmax ([6]; Dose 200 mg) is listed as 163.93 ng/mL. For the same compound, the Cmax ([6]; Dose 400 mg) was 317.52 ng/mL, the “AUCR (observed value)” value (CYP3A4 [11]; 50 mg) was 1.91 and the “AUCR (observed value)” value (CYP3A4 [11]; 200 mg) was 5.05. The “AUCR (observed value)” value (CYP3A4 [11]; 400 mg) was 5.07.
For CC(=O)N1CCN(c2ccc(OCC3COC(Cn4ccnc4)(c4ccc(Cl)cc4Cl)O3)cc2)CC1 (stereo not shown) [Ketoconazole], the Cmax ([6]; Dose 200 mg) is listed as 4681.36 ng/mL and the Cmax ([6]; Dose 400 mg) is listed as 5877.28 ng/mL.
Compound CS(=O)(=O)CCNCc1ccc(-c2ccc3ncnc(Nc4ccc(OCc5cccc(F)c5)c(Cl)c4)c3c2)o1 [Lapatinib] has a fraction unbound at 24 h, 1 μmol/L [13] of 0.05.
For O=C(NC1CCN(CCCCC2(C(=O)NCC(F)(F)F)c3ccccc3-c3ccccc32)CC1)c1ccccc1-c1ccc(C(F)(F)F)cc1 [Lomitapide], the “Human (fu value)” value [10] was 0.002 and the fraction unbound at 24 h, 0.2 μmol/L (in vitro [2]; serum) was 0.006.
In the case of c1ccc(Cc2nn[nH]n2)c(COc2ccc(OCc3ccc4ccccc4n3)cc2)c1 [RG12525], the fraction unbound at 24 h, 1 μmol/L [13] is reported as 0.77, the “fu ratio (serum/microsome)” value [7] is reported as 0.0005 and the “fu ratio (serum/microsome)” value [8] is reported as 0.0129. For the same compound, the Ki (CYP3A4 [9]) was 1.49 µM, the Cmax ([6]; Dose 100 mg) was 1482 ng/mL and the Cmax ([6]; Dose 600 mg) was 8186 ng/mL. The “AUCR (observed value)” value (CYP3A4 [11]; 100 mg) was 1.09 and the “AUCR (observed value)” value (CYP3A4 [11]; 600 mg) was 1.01.
For CCCSc1nc(N[C@@H]2C[C@H]2c2ccc(F)c(F)c2)c2nnn([C@@H]3C[C@H](OCCO)[C@@H](O)[C@H]3O)c2n1 [Tikaglera], the “fu ratio (serum/microsome)” value [7] was 0.0065, the “fu ratio (serum/microsome)” value [8] was 0.0207 and the Ki value (CYP3A4 [9]; human hepatic microsome, midazolam 0.33 μmol/L, IC50 used as Ki) was “maximum addition concentration”. For the same compound, the Ki (CYP3A4 [9]; read-out: Ki value, human hepatic microsome, midazolam 0.33 μmol/L as CYP3A4 substrate, IC50 directly used as Ki) was no less than 87 µM, the Cmax ([6]; Dose 90 mg) was 403 ng/mL and the “Human serum (serum concentration: 1/1) (fu value)” value [14] was 0.0032. The “fu ratio (scrum/microsome)” value [15] was 0.0103.
For Cc1ncc2n1-c1ccc(Cl)cc1C(c1ccccc1F)=NC2 [midazolam], the Km (CYP3A4 [16]) is given as 2.06 µM.

From patent US20240125807A1, “METHOD FOR MEASURING RELATIVE fu RATIO BY DYNAMIC [sequence]” (Chugai Seiyaku Kabushiki Kaisha, priority 2020, published 2024)
